Test results published in ChEMBL document CHEMBL4028801, “A multifactorial approach to hepatobiliary transporter assessment enables improved therapeutic compound development” (Toxicol Sci, 2013).
Blank lines part the entries; values can stand above or below the molecule they belong to.

How the values were obtained:
[1] = biological target: ATP-binding cassette sub-family C member 3 (Homo sapiens, UniProt O15438); assay: Inhibition of human MRP3 overexpressed in Sf9 insect cell membrane vesicles assessed as uptake of [3H]-estradiol-17beta-D-glucuronide in presence of ATP and GSH measured after 10 mins by membrane vesicle transport assay; assay type: ADME, cell-based
Chain of ATP-binding cassette sub-family C member 3 (O15438 whole entry): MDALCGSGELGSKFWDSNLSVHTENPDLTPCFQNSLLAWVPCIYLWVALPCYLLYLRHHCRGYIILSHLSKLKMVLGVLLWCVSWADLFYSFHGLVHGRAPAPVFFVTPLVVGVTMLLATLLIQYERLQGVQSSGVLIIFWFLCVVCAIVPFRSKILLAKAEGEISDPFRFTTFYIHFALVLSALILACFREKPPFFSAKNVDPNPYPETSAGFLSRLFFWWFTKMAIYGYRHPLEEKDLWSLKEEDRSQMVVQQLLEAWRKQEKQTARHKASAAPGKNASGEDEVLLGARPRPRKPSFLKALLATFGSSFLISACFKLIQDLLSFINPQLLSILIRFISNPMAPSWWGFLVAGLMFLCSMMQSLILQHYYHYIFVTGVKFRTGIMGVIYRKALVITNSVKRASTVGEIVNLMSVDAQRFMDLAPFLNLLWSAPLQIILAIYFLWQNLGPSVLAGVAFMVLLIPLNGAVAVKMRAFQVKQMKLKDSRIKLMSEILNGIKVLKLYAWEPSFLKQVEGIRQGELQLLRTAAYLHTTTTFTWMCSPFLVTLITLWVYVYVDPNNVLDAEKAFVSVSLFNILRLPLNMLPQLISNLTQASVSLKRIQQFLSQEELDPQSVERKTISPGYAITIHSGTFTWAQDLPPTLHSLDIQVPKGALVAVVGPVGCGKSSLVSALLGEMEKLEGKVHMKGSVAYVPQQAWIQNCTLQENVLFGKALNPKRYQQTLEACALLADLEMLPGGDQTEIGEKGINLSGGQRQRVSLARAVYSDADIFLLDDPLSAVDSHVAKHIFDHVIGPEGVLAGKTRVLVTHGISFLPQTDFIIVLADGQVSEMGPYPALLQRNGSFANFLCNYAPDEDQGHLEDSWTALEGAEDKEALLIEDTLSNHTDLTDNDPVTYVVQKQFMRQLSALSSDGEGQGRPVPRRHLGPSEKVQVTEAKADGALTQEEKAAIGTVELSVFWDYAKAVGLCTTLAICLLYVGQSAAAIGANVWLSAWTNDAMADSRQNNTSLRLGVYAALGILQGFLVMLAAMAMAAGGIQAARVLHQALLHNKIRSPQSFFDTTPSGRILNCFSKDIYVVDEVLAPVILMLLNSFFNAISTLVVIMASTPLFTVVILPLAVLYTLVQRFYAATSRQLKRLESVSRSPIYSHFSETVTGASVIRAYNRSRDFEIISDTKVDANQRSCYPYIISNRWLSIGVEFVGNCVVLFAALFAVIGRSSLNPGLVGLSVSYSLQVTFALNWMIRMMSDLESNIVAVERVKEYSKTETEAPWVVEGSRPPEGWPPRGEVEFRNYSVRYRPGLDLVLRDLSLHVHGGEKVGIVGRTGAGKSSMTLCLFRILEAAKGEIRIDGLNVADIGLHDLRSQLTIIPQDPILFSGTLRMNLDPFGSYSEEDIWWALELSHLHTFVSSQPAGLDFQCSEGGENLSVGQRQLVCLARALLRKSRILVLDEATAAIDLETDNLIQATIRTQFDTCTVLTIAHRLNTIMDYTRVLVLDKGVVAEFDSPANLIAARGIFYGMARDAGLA

[2] = AUC in human at 200 mg, po TID after 8 hrs; assay type: ADME, organism-based; set-up: time < 8 hr, dose 200 mg, route oral; conditions: in vivo
[3] = Drug concentration at steady state in human at 200 mg, po TID after 8 hrs; assay type: ADME, organism-based; conditions: in vivo, read-out: Css
[4] = Ratio of drug concentration at steady state in human at 200 mg, po TID after 8 hrs to IC50 for human BSEP overexpressed in Sf9 insect cells; assay type: ADME, organism-based; conditions: in vivo
[5] = biological target: ATP-binding cassette sub-family C member 2 (Homo sapiens, UniProt Q92887); assay: Inhibition of human MRP2 overexpressed in Sf9 cell membrane vesicles assessed as uptake of [3H]-estradiol-17beta-D-glucuronide in presence of ATP and GSH measured after 20 mins by membrane vesicle transport assay
Chain of ATP-binding cassette sub-family C member 2 (Q92887 whole entry): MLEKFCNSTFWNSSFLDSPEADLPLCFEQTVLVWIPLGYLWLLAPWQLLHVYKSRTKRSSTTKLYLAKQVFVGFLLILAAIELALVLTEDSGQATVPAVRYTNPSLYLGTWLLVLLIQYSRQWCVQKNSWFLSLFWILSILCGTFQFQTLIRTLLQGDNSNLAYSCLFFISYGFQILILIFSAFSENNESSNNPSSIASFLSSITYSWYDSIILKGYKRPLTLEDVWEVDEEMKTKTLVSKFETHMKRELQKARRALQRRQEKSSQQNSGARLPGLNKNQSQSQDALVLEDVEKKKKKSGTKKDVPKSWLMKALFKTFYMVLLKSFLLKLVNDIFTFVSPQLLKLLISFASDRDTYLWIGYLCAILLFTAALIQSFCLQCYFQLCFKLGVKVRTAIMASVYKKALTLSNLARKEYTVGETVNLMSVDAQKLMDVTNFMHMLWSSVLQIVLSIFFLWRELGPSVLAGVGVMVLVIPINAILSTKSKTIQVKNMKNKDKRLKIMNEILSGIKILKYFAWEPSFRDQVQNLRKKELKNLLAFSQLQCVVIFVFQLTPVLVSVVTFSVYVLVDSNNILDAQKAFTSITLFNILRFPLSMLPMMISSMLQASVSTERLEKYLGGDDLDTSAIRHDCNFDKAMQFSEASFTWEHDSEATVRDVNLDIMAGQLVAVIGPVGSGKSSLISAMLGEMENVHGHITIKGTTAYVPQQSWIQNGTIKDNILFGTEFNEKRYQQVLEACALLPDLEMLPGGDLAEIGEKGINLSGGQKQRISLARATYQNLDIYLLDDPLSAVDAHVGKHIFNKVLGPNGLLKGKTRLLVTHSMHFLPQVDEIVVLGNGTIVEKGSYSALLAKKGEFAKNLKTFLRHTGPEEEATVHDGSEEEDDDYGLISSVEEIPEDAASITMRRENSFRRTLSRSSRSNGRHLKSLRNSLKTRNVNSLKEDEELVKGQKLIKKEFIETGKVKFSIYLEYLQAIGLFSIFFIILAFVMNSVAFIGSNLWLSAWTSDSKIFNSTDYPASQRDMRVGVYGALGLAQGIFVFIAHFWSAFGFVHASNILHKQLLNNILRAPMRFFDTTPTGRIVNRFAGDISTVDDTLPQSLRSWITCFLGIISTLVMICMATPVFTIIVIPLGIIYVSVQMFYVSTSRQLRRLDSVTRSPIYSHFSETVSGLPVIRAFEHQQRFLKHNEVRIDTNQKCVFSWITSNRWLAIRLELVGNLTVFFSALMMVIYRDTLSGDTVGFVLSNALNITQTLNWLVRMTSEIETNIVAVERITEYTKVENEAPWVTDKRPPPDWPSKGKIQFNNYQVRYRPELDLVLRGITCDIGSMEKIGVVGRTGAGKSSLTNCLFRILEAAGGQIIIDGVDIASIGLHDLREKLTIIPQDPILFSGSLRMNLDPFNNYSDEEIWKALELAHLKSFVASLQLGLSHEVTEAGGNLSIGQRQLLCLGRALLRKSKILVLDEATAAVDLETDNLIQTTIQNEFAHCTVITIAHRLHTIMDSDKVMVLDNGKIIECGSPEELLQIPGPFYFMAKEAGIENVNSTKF

[6] = biological target: T1, ATP-binding cassette sub-family C member 4 (Homo sapiens, UniProt O15439); assay: Inhibition of human MRP4 overexpressed in Sf9 cell membrane vesicles assessed as uptake of [3H]-estradiol-17beta-D-glucuronide in presence of ATP and GSH measured after 20 mins by membrane vesicle transport assay; assay type: ADME, cell-based
T1 sequence (O15439 whole entry): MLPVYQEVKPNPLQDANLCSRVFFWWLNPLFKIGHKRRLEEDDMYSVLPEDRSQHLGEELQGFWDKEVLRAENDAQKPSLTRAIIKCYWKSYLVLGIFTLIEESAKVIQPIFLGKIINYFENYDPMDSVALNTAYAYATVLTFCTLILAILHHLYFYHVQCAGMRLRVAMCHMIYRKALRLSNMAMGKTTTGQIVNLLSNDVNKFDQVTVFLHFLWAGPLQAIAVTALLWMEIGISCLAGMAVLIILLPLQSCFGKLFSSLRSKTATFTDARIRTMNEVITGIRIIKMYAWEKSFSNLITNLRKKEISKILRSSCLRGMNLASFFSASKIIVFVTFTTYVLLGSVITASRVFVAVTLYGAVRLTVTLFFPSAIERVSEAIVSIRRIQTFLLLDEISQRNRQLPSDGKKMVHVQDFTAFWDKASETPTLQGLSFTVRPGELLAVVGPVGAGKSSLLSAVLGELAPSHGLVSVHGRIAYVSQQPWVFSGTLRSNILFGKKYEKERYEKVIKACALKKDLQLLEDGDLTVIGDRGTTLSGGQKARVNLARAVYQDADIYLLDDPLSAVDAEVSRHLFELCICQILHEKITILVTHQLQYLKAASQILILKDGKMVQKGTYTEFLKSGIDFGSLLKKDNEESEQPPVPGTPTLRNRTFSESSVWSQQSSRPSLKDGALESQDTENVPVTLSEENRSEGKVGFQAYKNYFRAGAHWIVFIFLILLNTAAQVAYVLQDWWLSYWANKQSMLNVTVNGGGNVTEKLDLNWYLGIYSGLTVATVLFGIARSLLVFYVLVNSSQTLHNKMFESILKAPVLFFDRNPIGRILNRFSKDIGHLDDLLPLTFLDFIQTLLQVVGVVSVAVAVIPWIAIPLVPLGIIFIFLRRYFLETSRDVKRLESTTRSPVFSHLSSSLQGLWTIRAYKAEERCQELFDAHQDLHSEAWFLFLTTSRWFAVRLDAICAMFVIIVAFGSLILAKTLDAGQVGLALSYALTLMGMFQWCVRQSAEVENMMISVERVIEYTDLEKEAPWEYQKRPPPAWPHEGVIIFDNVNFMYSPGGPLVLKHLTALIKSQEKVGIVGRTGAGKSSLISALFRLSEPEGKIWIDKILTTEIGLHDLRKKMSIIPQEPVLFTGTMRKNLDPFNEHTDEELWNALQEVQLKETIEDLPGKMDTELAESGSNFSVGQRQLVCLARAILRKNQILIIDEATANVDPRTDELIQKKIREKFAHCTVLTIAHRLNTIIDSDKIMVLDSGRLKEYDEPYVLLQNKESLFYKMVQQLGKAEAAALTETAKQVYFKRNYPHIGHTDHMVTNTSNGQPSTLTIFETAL

Bile salt export pump = Bile salt export pump (Homo sapiens, UniProt O95342); assay: Inhibition of human BSEP overexpressed in Sf9 cell membrane vesicles assessed as uptake of [3H]-taurocholate in presence of ATP measured after 15 to 20 mins by membrane vesicle transport assay; assay type: ADME, cell-based
Chain of Bile salt export pump (O95342 whole entry): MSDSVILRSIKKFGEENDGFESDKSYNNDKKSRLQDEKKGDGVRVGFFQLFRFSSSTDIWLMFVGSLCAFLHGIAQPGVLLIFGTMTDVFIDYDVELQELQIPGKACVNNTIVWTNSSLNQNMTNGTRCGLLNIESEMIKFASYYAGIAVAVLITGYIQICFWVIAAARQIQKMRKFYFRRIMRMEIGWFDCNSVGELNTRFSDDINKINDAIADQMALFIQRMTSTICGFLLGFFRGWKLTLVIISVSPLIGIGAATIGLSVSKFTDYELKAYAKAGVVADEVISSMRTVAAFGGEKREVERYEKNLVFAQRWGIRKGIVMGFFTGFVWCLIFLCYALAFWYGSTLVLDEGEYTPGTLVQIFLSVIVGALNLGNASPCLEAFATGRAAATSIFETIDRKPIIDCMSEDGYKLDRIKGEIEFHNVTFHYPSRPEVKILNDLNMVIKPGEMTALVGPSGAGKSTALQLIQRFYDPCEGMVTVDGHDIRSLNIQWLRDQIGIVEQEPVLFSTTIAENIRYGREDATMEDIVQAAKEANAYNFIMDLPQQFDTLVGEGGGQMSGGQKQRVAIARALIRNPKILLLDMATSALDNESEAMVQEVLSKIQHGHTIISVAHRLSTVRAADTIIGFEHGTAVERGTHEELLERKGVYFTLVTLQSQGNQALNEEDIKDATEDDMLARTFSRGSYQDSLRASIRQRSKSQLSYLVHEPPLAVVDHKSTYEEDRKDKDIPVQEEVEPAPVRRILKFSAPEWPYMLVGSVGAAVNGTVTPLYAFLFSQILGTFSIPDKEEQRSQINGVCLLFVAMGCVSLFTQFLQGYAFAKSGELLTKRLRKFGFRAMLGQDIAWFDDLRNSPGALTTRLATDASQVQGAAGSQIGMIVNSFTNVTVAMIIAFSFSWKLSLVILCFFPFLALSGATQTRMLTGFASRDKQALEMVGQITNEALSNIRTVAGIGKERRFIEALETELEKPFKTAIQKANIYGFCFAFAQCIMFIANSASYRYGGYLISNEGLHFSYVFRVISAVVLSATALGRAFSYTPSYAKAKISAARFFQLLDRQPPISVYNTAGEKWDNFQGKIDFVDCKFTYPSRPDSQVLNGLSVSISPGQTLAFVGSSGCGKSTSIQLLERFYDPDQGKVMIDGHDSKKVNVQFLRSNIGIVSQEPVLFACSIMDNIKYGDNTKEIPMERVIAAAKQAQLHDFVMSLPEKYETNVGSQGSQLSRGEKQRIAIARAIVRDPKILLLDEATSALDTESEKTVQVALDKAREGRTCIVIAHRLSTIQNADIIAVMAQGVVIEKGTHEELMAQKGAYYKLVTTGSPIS

[7] = Drug concentration at steady state in human at 100 to 200 mg, po TID after 8 hrs; assay type: ADME, organism-based; conditions: in vivo, read-out: Css
[8] = AUC in human at 100 to 200 mg, po TID after 8 hrs; assay type: ADME, organism-based; conditions: in vivo
[9] = Ratio of drug concentration at steady state in human at 100 to 200 mg, po TID after 8 hrs to IC50 for human MRP4 overexpressed in Sf9 insect cells; assay type: ADME, organism-based; conditions: in vivo
[10] = Ratio of drug concentration at steady state in human at 100 to 200 mg, po TID after 8 hrs to IC50 for human MRP3 overexpressed in Sf9 insect cells; assay type: ADME, organism-based; conditions: in vivo
[11] = Ratio of drug concentration at steady state in human at 100 to 200 mg, po TID after 8 hrs to IC50 for human BSEP overexpressed in Sf9 insect cells; assay type: ADME, organism-based; conditions: in vivo
[12] = Drug concentration at steady state in human at 75 to 600 mg, iv QD after 24 hrs; assay type: ADME, organism-based; conditions: in vivo, read-out: Css
[13] = AUC in human at 75 to 600 mg, iv QD after 24 hrs; assay type: ADME, organism-based; conditions: in vivo
[14] = Drug concentration at steady state in human at 43 to 130 mg, po QD after 24 hrs; assay type: ADME, organism-based; conditions: in vivo, read-out: Css
clinical = conditions: human, in vivo, po
[15] = Drug concentration at steady state in human at 200 to 800 mg, po QD after 24 hrs; assay type: ADME, organism-based; conditions: in vivo, read-out: Css
[16] = AUC in human at 200 to 800 mg, po QD after 24 hrs; assay type: ADME, organism-based; conditions: in vivo
[17] = Ratio of drug concentration at steady state in human at 200 to 800 mg, po QD after 24 hrs to IC50 for human BSEP overexpressed in Sf9 insect cells; assay type: ADME, organism-based; conditions: in vivo
[18] = Ratio of drug concentration at steady state in human at 200 to 800 mg, po QD after 24 hrs to IC50 for human MRP4 overexpressed in Sf9 insect cells; assay type: ADME, organism-based; conditions: in vivo
[19] = Ratio of drug concentration at steady state in human at 20 to 40 mg/kg, po QD after 24 hrs to IC50 for human MRP4 overexpressed in Sf9 insect cells; assay type: ADME, organism-based; conditions: in vivo
[20] = Ratio of drug concentration at steady state in human at 20 to 40 mg/kg, po QD after 24 hrs to IC50 for human BSEP overexpressed in Sf9 insect cells; assay type: ADME, organism-based; conditions: in vivo
[21] = Drug concentration at steady state in human at 20 to 40 mg/kg, po QD after 24 hrs; assay type: ADME, organism-based; conditions: in vivo, read-out: Css
[22] = AUC in human at 20 to 40 mg/kg, po QD after 24 hrs; assay type: ADME, organism-based; conditions: in vivo
[23] = Ratio of drug concentration at steady state in human at 15 to 60 mg, po QD after 24 hrs to IC50 for human MRP4 overexpressed in Sf9 insect cells; assay type: ADME, organism-based; conditions: in vivo
[24] = Drug concentration at steady state in human at 15 to 60 mg, po QD after 24 hrs; assay type: ADME, organism-based; conditions: in vivo, read-out: Css
[25] = Ratio of drug concentration at steady state in human at 15 to 60 mg, po QD after 24 hrs to IC50 for human BSEP overexpressed in Sf9 insect cells; assay type: ADME, organism-based; conditions: in vivo
[26] = AUC in human at 15 to 60 mg, po QD after 24 hrs; assay type: ADME, organism-based; conditions: in vivo

SMILES: CC[C@@H]([C@H](C)O)n1ncn(-c2ccc(N3CCN(c4ccc(OC[C@@H]5CO[C@@](Cn6cncn6)(c6ccc(F)cc6F)C5)cc4)CC3)cc2)c1=O [POSACONAZOLE]
IC50 [1]: > 133 µM
AUC at 8 h [2]: 35.2 µM·h
concentration at 8 h [3]: 4.41 µM
Ratio [4]: 0.544
IC50 [5]: > 133 µM
IC50 [6]: > 133 µM
IC50 (Bile salt export pump): 8.1 µM

SMILES: O=C(O)c1ccc(-n2nc(-c3ccccc3O)nc2-c2ccccc2O)cc1 [DEFERASIROX]
IC50 [1]: > 133 µM
Ratio [19]: 3.781
Ratio [20]: 2.363
concentration at 24 h [21]: 138 µM
IC50 [5]: > 133 µM
IC50 [6]: 36.5 µM
AUC at 24 h [22]: 3310 µM·h
IC50 (Bile salt export pump): 58.4 µM

SMILES: CCc1ccc(CCOc2ccc(CC3SC(=O)NC3=O)cc2)nc1 (stereo unspecified) [PIOGLITAZONE]
IC50 [1]: > 133 µM
Ratio [23]: 0.019
concentration at 24 h [24]: 0.935 µM
IC50 [6]: 49.5 µM
Ratio [25]: 2.338
AUC at 24 h [26]: 22.4 µM·h

Now from value to molecule, other results behind:

IC50 [1]: 85 µM
concentration at 8 h [7]: 22.3 µM
IC50 [6]: 16.7 µM
AUC at 8 h [8]: 179 µM·h
Ratio [9]: 1.338
Ratio [10]: 0.263
SMILES: Cc1ccc(C(=O)c2cc(O)c(O)c([N+](=O)[O-])c2)cc1 [TOLCAPONE]
IC50 (Bile salt export pump): 36.6 µM
Ratio [11]: 0.611

IC50 [1]: 9.3 µM
concentration at 24 h [12]: 18.6 µM
IC50 [5]: > 133 µM
AUC at 24 h [13]: 447 µM·h
SMILES: CN(C)C(=O)CCSC(SCCC(=O)O)c1cccc(/C=C/c2ccc3ccc(Cl)cc3n2)c1 (stereo unspecified) [MK-571]

IC50 [1]: > 133 µM
IC50 [5]: > 133 µM
IC50 [6]: > 133 µM
concentration at 24 h [14]: 14.9 µM
AUC at 24 h (clinical): 357 µM·h
SMILES: CC(C)OC(=O)C(C)(C)Oc1ccc(C(=O)c2ccc(Cl)cc2)cc1 [FENOFIBRATE]

IC50 [1]: > 133 µM
concentration at 24 h [15]: 98.8 µM
IC50 [5]: > 133 µM
AUC at 24 h [16]: 2370 µM·h
IC50 [6]: 8.1 µM
Ratio [18]: 12.192
SMILES: Cc1ccc(Nc2nccc(N(C)c3ccc4c(C)n(C)nc4c3)n2)cc1S(N)(=O)=O [PAZOPANIB]
Ratio [17]: 9.588
IC50 (Bile salt export pump): 10.3 µM
